Assay results taken from the supplement of paper PMC10307832.

Assays:
Assay in all cases: relative viability (nuclei count vs DMSO), 5 days (fraction); higher = more cells survive
[1] = system: NCI-H1703
Outline: (§1)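 Nuclei were stained with Hoechst during a one-step fixation (final 0.05% Triton X-100, 1% formaldehyde, 1 ug/ml Hoechst) carried out 5 days after dosing, then counted on 4× images. The cells, lung cancer lines in 1536-well plates, had been dosed by pin tool the day after seeding with one drug alone or a fixed anchor-drug dose plus five library-drug doses (not always all listed) in √10 steps. Relative viability is the nuclei count in treated wells divided by that in vehicle wells, and each value is the median of duplicate plates.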

[2] = system: NCI-H1355
Outline: as §1

[3] = system: LCLC-97TM1
Outline: as §1

[4] = system: NCI-H23
Outline: as §1

[5] = system: NCI-H1648
Outline: as §1

[6] = system: NCI-H2347
Outline: as §1

[7] = system: LC-2-ad
Outline: as §1

[8] = system: PC-3 [JPC-3]
Outline: as §1

[9] = system: NCI-H520
Outline: as §1

[10] = system: NCI-H1623
Outline: as §1

SMILES	relative viability ([2]; first compound 0.2 µM)	relative viability ([2]; first compound 0.6325 µM)	relative viability ([2]; first compound 2 µM)	relative viability ([2]; first compound 6.325 µM)	relative viability ([2]; first compound 20 µM)	relative viability ([3]; first compound 0.2 µM)	relative viability ([3]; first compound 0.6325 µM)	relative viability ([3]; first compound 2 µM)	relative viability ([3]; first compound 6.325 µM)	relative viability ([3]; first compound 20 µM)	relative viability ([4]; first compound 0.2 µM)	relative viability ([4]; first compound 0.6325 µM)	relative viability ([4]; first compound 2 µM)	relative viability ([4]; first compound 6.325 µM)	relative viability ([4]; first compound 20 µM)	relative viability ([6]; first compound 0.2 µM)	relative viability ([6]; first compound 0.6325 µM)	relative viability ([6]; first compound 2 µM)	relative viability ([6]; first compound 6.325 µM)	relative viability ([6]; first compound 20 µM)	also measured
COCC1(CO)C(=O)C2CCN1CC2 (configuration not stated) [PRIMA-1MET] + NC(=O)Nc1cc(-c2cccc(F)c2)sc1C(=O)N[C@H]1CCCNC1 [AZD7762] (partner 0.2 µM)	0.887	0.61	0.702	0.874	0.72	0.268	0.226	0.212	0.336	0.166	0.212	0.225	0.231	0.209	0.102	0.709	0.668	0.569	0.761	0.525	relative viability ([1]; first compound 0.6325 µM): 0.158; relative viability ([1]; first compound 6.325 µM): 0.121; relative viability ([1]; first compound 20 µM): 0.0239; relative viability ([5]; first compound 0.2 µM): 0.729; relative viability ([5]; first compound 2 µM): 0.655; relative viability ([5]; first compound 20 µM): 0.663; relative viability ([7]; first compound 0.2 µM): 0.968; relative viability ([7]; first compound 0.6325 µM): 0.806; relative viability ([7]; first compound 2 µM): 0.669; relative viability ([7]; first compound 6.325 µM): 0.932; relative viability ([7]; first compound 20 µM): 0.791; relative viability ([8]; first compound 0.2 µM): 1; relative viability ([8]; first compound 0.6325 µM): 0.797; relative viability ([8]; first compound 2 µM): 0.811; relative viability ([8]; first compound 6.325 µM): 0.904; relative viability ([8]; first compound 20 µM): 0.672
COCC1(CO)C(=O)C2CCN1CC2 (configuration not stated) [PRIMA-1MET] + CCNC(=O)c1noc(-c2cc(C(C)C)c(O)cc2O)c1-c1ccc(CN2CCOCC2)cc1 [Luminespib] (partner 0.01 µM)	0.859	0.556	0.695	0.734	0.673	0.824	0.531	0.877	0.841	0.674	0.24	0.234	0.22	0.209	0.0464	0.262	0.403	0.174	0.386	0.349	relative viability ([9]; first compound 0.2 µM): 0.214; relative viability ([9]; first compound 0.6325 µM): 0.215; relative viability ([9]; first compound 2 µM): 0.186; relative viability ([9]; first compound 6.325 µM): 0.2; relative viability ([9]; first compound 20 µM): 0.203; relative viability ([7]; first compound 0.2 µM): 1.26; relative viability ([7]; first compound 2 µM): 0.902; relative viability ([7]; first compound 6.325 µM): 1.16; relative viability ([7]; first compound 20 µM): 0.887; relative viability ([10]; first compound 0.2 µM): 0.592; relative viability ([10]; first compound 0.6325 µM): 0.37; relative viability ([10]; first compound 2 µM): 0.446; relative viability ([10]; first compound 6.325 µM): 0.426; relative viability ([10]; first compound 20 µM): 0.247; relative viability ([8]; first compound 0.2 µM): 0.849; relative viability ([8]; first compound 0.6325 µM): 0.649; relative viability ([8]; first compound 2 µM): 0.679; relative viability ([8]; first compound 6.325 µM): 0.731; relative viability ([8]; first compound 20 µM): 0.546
COCC1(CO)C(=O)C2CCN1CC2 (configuration not stated) [PRIMA-1MET] + CC(=O)Nc1cccc(-n2c(=O)n(C3CC3)c(=O)c3c(Nc4ccc(I)cc4F)n(C)c(=O)c(C)c32)c1 [Trametinib] (partner 0.02 µM)	0.393	0.462	0.444	0.427	0.428	0.133	0.163	0.179	0.151	0.197	0.281	0.37	0.273	0.328	0.112	0.286	0.303	0.255	0.225	0.24	relative viability ([9]; first compound 0.2 µM): 0.463; relative viability ([9]; first compound 2 µM): 0.455; relative viability ([9]; first compound 6.325 µM): 0.76; relative viability ([9]; first compound 20 µM): 0.0736; relative viability ([5]; first compound 0.2 µM): 0.396; relative viability ([5]; first compound 2 µM): 0.445; relative viability ([5]; first compound 20 µM): 0.553; relative viability ([7]; first compound 0.2 µM): 0.82; relative viability ([7]; first compound 0.6325 µM): 0.914; relative viability ([7]; first compound 2 µM): 0.924; relative viability ([7]; first compound 6.325 µM): 0.878; relative viability ([7]; first compound 20 µM): 0.905; relative viability ([8]; first compound 0.2 µM): 0.757; relative viability ([8]; first compound 0.6325 µM): 0.667; relative viability ([8]; first compound 2 µM): 0.733; relative viability ([8]; first compound 6.325 µM): 0.696; relative viability ([8]; first compound 20 µM): 0.614
